Test results from patent US20240002437A1, “COMPOSITIONS AND METHODS OF TREATING INFLAMMATORY LUNG DISEASES” (priority 2020, published 2024).
Entries after “also recorded” stand apart in the source; their conditions may differ.

What was measured:
purified eNOS protein = molecular target: T1, purified eNOS protein (Homo sapiens, UniProt P29474); assay: In vitro peptide binding assay (biotinylated d-peptide, streptavidin capture, blot); details: biotinylated d-peptide 0 to 5 μg, 1 hour room temperature
T1 sequence (P29474 1-1203): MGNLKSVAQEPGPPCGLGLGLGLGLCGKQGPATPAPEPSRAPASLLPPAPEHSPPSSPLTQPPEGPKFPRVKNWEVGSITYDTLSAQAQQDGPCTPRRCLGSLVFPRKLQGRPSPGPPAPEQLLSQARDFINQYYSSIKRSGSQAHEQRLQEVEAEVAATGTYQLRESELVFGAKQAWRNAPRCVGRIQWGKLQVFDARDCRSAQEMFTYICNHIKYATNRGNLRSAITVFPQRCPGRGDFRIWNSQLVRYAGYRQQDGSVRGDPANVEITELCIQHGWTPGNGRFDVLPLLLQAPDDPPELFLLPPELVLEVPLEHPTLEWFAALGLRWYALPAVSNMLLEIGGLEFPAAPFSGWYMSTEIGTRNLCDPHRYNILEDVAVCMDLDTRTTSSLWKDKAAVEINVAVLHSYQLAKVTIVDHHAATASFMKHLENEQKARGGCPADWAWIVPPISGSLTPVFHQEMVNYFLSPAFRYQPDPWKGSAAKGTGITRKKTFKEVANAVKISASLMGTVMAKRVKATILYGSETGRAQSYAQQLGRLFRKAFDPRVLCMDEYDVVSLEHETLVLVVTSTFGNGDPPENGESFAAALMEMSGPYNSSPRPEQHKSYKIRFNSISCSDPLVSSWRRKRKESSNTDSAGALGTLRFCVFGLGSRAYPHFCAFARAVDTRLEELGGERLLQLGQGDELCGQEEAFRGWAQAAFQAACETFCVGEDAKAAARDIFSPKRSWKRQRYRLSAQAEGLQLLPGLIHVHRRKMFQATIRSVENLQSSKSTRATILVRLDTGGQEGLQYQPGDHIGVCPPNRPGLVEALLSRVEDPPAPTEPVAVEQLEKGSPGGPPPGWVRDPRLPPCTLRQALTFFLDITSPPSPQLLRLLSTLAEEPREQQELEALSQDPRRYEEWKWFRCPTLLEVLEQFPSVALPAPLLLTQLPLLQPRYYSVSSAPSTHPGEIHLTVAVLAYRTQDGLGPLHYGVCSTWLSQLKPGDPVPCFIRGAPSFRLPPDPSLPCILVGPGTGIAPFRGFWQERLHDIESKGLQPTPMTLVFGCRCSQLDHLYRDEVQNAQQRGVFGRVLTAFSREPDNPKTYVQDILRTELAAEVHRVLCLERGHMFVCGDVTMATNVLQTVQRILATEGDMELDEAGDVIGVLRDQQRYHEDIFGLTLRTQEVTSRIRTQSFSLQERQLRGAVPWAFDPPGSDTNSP
Description: Biotinylation of the decoy peptide (d-peptide) was performed using the Thermo Scientific EZ-Link Sulfo-NHS-LC-Biotinylation Kit. Briefly, Sulfo-NHS-LC-Biotin was mixed with d-peptide and the reaction mix was incubated at room temperature for 30 minutes. Different concentrations of the biotinylated d-peptide (0 to 5 μg) mixed with either purified eNOS protein or PKCα protein in a reaction mix containing PKC lipid activator were incubated at room temperature for 1 hour. Protein bound to the biotinylated d-peptide was captured using Thermo Scientific streptavidin agarose column and run on a 10% SDS-PAGE gel under reducing condition. The resulting blots were probed with antibodies to eNOS and PKCα protein respectively. Reactive bands were visualized using chemiluminescence on the LI-COR Odyssey image station.

TRPV4 = assay: Cytosolic Ca2+ concentration ([Ca2+]cyt), fura-2/AM loaded PAEC; assay type: cell-based, ovine; details: 4αPDD 10 μM
Description: (§1) Primary cultures of ovine pulmonary arterial endothelial cells (PAEC) were isolated as described previously (L. K. Kelly, Am J Physiol Lung Cell Mol Physiol, 286(5), L984-91 (2004)). Briefly, cells were maintained in Dulbecco's modified Eagle medium (DMEM) supplemented with 10% fetal calf serum (Hyclone, Logan, UT), antibiotics/antimycotic (500 IU Penicillin, 500 μg/ml Streptomycin, 1.25 μg/ml Amphotericin B; MediaTech, Herndon, VA) at 37° C. in a humidified atmosphere with 5% CO2 and 95% air. Cells were used for experiments between passages 9-14, seeded at ˜50% confluence, and utilized when fully confluent.
PAEC were grown at 50-60% confluence on 25-mm-diameter circular glass coverslips. […] The fluorescence emission (at 520 nm) was captured with an EM-CC camera (Evolve; Photometric, Tucson, AZ) and analyzed using NIS Elements 3.2 software (Nikon). [Ca^2+]cyt is expressed as 340/380 fluorescence ratio within an area of interest in the peripheral area of a cell recorded every 2 s. […] [Ca^2+]cyt was calculated using the following equation: [Ca^2+]cyt=Kd×(Sf2/Sf1)×(R−Rmin)/(Rmax−R). Kd (225 nM) is the dissociation constant of the Ca2+-fura-2 complex; and Sf2 and Sf1 and Rmin and Rmax were calculated using a standard protocol (G. Grynkiewicz, J Biol Chem, 260(6), 3440-50 (1985)). […]

PAEC = assay: Mitochondrial membrane potential (TMRM) in PAEC; assay type: cell-based, ovine; details: 4αPDD 10 μM, 3 h
Description: as §1
Mitochondrial membrane potential was determined using TMRM (tetramethylrhodamine methyl ester perchlorate, Molecular Probes, Eugene, OR). Briefly, after each experiment, cells were washed with fresh media, incubated in media containing TMRM (50 nM), for 30 min at 37° C. in dark conditions, then subjected to fluorescence microscopy using an excitation of 548 nm and an emission at 575 nm. An Olympus IX51 microscope equipped with a CCD camera (Hamamatsu Photonics) was used for acquisition of fluorescent images and the average fluorescent intensities were quantified using ImagePro Plus version 5.0 imaging software (Media Cybernetics).

| Compound | binding to eNOS (purified eNOS protein) | cytosolic free Ca2+ concentration ([Ca2+]cyt) (TRPV4) | mitochondrial membrane potential (TMRM) (PAEC) |
| --- | --- | --- | --- |
| HRKKRRQRRITRKKTFKEVA [d-peptide] | but not to eNOS |  |  |
| CCCCCCCCCC(=O)O[C@@H]1[C@@H](C)[C@@]2(O)[C@@H](C=C(CO)C[C@@]3(O)C(=O)C(C)=C[C@@H]23)[C@@H]2C(C)(C)[C@]12OC(=O)CCCCCCCCC [4αPDD, 4α-Phorbol-12,13 didecanoate] |  | transient increase of [Ca^2+]cyt; also recorded: induced a transient increase | decrease in the mitochondrial membrane potential |
